A short description of this series: Stability of vitamin D2 in milk boiled twice (relative assay). It is filed as physicochemical. The method, then: In an example, the effect of bioactive microsphere of the present disclosure on the stability of bioactive, when subjected to the deteriorating effect of processing parameter such as heating, was studied. The stability of vitamin D2 was determined by heating the milk containing the bioactive microsphere as prepared in Example 1, and the milk containing pure vitamin D2, i.e., control vitamin D2.
For the purpose of this example, both the vitamin D2 containing milk were boiled twice, and the amount of vitamin D2 was determined after second boiling, as shown in Table 1. The difference in the amount of vitamin D2 in the milk before boiling, and after the second boiling, illustrated the deteriorating effect of heat on the vitamin D2.

Consider `C=C1CC[C@H](O)C/C1=C/C=C1\CCC[C@]2(C)[C@@H]([C@H](C)/C=C/[C@H](C)C(C)C)CC[C@@H]12` [Control vitamin D2, vitamin D2], for which the “Stability of vitamin D2 in milk on boiling (in words)” value (milk, boiled two times) is “deactivated on boiling”. Also, the “% Relative assay Before boiling (%)” value (vitamin D2 in milk, before boiling) worked out at 100%. In addition, the “% Degradation” value (vitamin D2 in milk, before boiling vs after second boiling) amounted to 65%. Under “vitamin D2 in milk, boiled twice, after second boiling”, the “% Relative assay After second boiling (%)” value is 35%.

The record behind these values is US20260256699A1, “BIOACTIVE MICROSPHERE AND METHOD FOR PREPARATION THEREOF” (priority 2021, published 2026).
